Laboratory results reported in patent US20060110732A1, “Method for the identification of ligands” (priority 2002, published 2006).
Like-named read-outs stand apart in the source and are kept apart here.

Experiments:
PPAR-γ [1] = target: T1, PPAR-γ (Homo sapiens, UniProt P37231); assay: Microplate thermal shift of PPAR-γ with ligands, co-activator peptide and co-repressor peptide NCoR-1, Example 5; type: binding; settings: for Observed stabilization of PPAR-γ, SRC1-NR2 / Observed stabilization of PPAR-γ, NCoR-1 / Observed stabilization of PPAR-γ, Ligand: PPAR-γ 8 μM, ligand 40 μM; for Observed stabilization of PPAR-γ, SRC1-NR2: co-activator peptide 200 μM; for Observed stabilization of PPAR-γ, NCoR-1: co-repressor peptide NCoR-1 200 μM; for Observed stabilization of PPAR-γ, Ligand: no peptide; for Thermofluor Prediction (PPAR-γ): based on relative affinities for co-activator and co-repressor peptides, partial = partial agonist
T1 sequence (P37231 1-505): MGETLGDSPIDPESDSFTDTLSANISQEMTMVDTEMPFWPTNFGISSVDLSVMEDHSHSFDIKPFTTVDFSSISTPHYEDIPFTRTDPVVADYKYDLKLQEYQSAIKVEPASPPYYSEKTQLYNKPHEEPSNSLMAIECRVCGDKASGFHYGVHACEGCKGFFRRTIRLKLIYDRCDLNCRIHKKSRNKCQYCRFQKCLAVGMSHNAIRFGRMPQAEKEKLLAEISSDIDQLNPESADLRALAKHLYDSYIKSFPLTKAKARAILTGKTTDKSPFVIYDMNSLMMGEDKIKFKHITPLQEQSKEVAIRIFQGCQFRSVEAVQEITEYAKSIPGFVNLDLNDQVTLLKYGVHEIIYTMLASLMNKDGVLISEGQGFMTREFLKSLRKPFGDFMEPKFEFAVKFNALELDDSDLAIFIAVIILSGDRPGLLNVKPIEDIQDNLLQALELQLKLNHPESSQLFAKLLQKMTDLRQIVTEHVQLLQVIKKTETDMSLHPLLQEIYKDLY
Description: (§1) The experiments were performed in 25 mM HEPES pH 7.9, 200 mM NaCl, 5 mm DTT and in the presence of 50 μM dapoxyl-2-amino-ethyl sulfonamide. A 2 μL ligand solution at 2 times the final concentration was dispensed with a micropipette into a 384 well black wall Greiner plate. Then 2 μL of the protein dye solution was dispensed on top of the ligand solution in the 384 well plate. The plates were spun to ensure mixing of the protein-dye and ligand solutions followed by layering of 1 μL of silicone oil to prevent evaporation during heating of the samples. Data were collected on a Thermofluor apparatus and data were analyzed using software that employs a non-linear Marquardt algorithm. Reported results are the average of four experiments.

PPAR-γ [2] = target: T1, PPAR-γ; settings: reported in literature; partial = partial agonist; cited from earlier work
ER-β [3] = target: T2, ER-β (Homo sapiens, UniProt Q92731); settings: ligand 40 μM; for Change in Tm stabilization from receptor-ligand ΔTm, SRC1: SRC-1 20 μM; for Observed ΔTm stabilization, Ligand: no co-activator
T2 sequence (Q92731 whole entry, species assumed): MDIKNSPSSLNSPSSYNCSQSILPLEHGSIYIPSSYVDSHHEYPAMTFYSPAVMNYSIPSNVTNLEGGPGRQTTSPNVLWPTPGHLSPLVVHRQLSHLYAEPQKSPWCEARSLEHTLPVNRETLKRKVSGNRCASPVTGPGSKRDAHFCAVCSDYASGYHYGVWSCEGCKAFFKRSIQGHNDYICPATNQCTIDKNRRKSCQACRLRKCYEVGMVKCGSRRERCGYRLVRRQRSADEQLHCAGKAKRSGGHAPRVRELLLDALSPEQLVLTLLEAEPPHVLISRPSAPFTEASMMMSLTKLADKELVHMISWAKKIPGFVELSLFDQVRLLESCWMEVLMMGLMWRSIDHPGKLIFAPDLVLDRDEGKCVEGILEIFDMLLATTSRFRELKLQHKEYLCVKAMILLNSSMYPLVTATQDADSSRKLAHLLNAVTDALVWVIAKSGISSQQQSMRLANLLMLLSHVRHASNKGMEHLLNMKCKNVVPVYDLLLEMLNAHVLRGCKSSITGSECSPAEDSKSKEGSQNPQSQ

ER-α [4] = target: T3, ER-α (Homo sapiens, UniProt P03372); assay: biochemical
T3 sequence (P03372 1-595): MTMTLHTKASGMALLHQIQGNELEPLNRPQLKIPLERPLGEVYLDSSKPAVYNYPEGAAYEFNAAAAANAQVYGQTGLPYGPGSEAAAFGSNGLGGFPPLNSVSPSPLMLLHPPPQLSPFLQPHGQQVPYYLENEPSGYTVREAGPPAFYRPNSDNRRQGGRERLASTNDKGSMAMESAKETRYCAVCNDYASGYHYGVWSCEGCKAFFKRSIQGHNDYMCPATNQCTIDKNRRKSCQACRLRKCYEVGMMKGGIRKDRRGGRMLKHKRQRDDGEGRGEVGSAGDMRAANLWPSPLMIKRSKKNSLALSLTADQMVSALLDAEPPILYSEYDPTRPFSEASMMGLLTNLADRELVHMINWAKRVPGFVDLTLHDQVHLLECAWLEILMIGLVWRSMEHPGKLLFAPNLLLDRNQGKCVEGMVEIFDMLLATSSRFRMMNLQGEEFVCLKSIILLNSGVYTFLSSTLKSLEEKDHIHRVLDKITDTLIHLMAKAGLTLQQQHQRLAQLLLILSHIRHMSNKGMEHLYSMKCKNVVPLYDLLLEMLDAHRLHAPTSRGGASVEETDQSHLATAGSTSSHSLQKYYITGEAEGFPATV
Description: Table 4, shown below, is a summary of the data obtained for ER-α and ER-β in the presence of the coactivator proteins SRC-1 SRC-2 and SRC-3 and in the presence of seven ligands. The concentration of ER-α in all experiments was 8 μM, the ligand concentration was 40 μM, SRC-1 and SRC-3 were at 20 μM.
as §1, with “A” for “The experiments were performed in 25 mM HEPES pH 7.9, 200 mM NaCl, 5 mm DTT and in the presence of 50 μM dapoxyl-2-amino-ethyl sulfonamide. A”, “experiments. The values for the co-regulators represent a change in Tm stabilization from the receptor-ligand ΔTm values.” for “experiments.”
FIG. 3 illustrates binding constants, Ka, for co-activator proteins SRC-1, SRC-2 and SRC-3 in the presence of ER-α ligands. FIG. 4 illustrates binding constants, Ka, for co-activator proteins SRC-1, […] in the presence of ER-β ligands Binding constants were calculated from the observed induced ligand and co-regulator stabilization of the nuclear receptor.

ER-α [5] = target: T3, ER-α; assay: biochemical; remark: listed apart in the source
Description: (§2) A 2 μL ligand solution at 2 times the final concentration was dispensed with a micropipette into a 384 well black wall Greiner plate. Then, 2 μL of the protein dye solution was dispensed on top of the ligand solution in the 384 well plate. The plates were spun to ensure nixing of the protein-dye and ligand solutions followed by layering of 1 μL of silicone oil to prevent evaporation during heating of the samples. […] The values for the co-regulators represent a change in Tm stabilization from the receptor-ligand ΔTm values.

ER-β [6] = target: T2, ER-β; assay: Microplate thermal shift (Thermofluor) of ER-β with ligands and co-regulators, Example 1; type: binding; set-up: Observed ΔTm stabilization, ligand alone / Change in Tm stabilization from receptor-ligand ΔTm, SRC-3 / Change in Tm stabilization from receptor-ligand ΔTm, NcoR1-NR1: unit not given here; settings: ER-β 8 μM, ligand 20 μM
Description: as §2

ER-β [7] = target: T2, ER-β; assay: biochemical
ER-α [8] = target: T3, ER-α; assay: Microplate thermal shift of ER-α against a panel of steroid ligands, Example 2; type: binding; settings: ER-α 8 μM, ligand 20 μM, 25 mM phosphate pH 8.0; average of four experiments
Description: The concentration of ER-α in all of the experiments was 8 μM and the ligand concentration was 20 μM.
A 2 μL ligand solution at 2 times the final concentration was dispensed with a micropipette into a 384 well black wall Greiner plate. Then, 2 μL of the protein dye solution was dispensed on top of the ligand solution in the 384 well plate. The plates were spun to ensure mixing of the protein-dye and ligand solutions followed by layering of 1 μL of silicone oil to prevent evaporation during heating of the samples.

[9] = read-out: Change in Tm stabilization from receptor-ligand ΔTm, SRC1
[10] = read-out: Change in Tm stabilization from receptor-ligand ΔTm, SRC3

With `O=C(Nc1ccccc1)c1cc([N+](=O)[O-])ccc1Cl` [GW9662] the “Observed stabilization of PPAR-γ, SRC1-NR2” value (PPAR-γ [1]) was 1.2, the “Observed stabilization of PPAR-γ, NCoR-1” value (PPAR-γ [1]) was 3.5 and the “Observed stabilization of PPAR-γ, Ligand” value (PPAR-γ [1]) was 5.9. The “Thermofluor Prediction (PPAR-γ)” value (PPAR-γ [1]) was “Antagonist” and the “Literature profile of ligand” value (PPAR-γ [2]) was “Antagonist γ”.

With `Cc1cccc(Nc2cc(Cl)nc(SCC(=O)O)n2)c1C` [WY14643] the “Observed stabilization of PPAR-γ, SRC1-NR2” value (PPAR-γ [1]) was 1.5, the “Observed stabilization of PPAR-γ, NCoR-1” value (PPAR-γ [1]) was 5.0 and the “Observed stabilization of PPAR-γ, Ligand” value (PPAR-γ [1]) was 1.0. For the same compound, the “Thermofluor Prediction (PPAR-γ)” value (PPAR-γ [1]) was “Antagonist” and the “Literature profile of ligand” value (PPAR-γ [2]) was “Partial α, antagonist γ”.

For `CC(C)(c1ccc(OCC2CO2)cc1)c1ccc(OCC2CO2)cc1` (stereo not drawn) [BADGE], the “Observed stabilization of PPAR-γ, SRC1-NR2” value (PPAR-γ [1]) was 1.1, the “Observed stabilization of PPAR-γ, NCoR-1” value (PPAR-γ [1]) was 5.5 and the “Observed stabilization of PPAR-γ, Ligand” value (PPAR-γ [1]) was 1.1. For the same compound, the “Thermofluor Prediction (PPAR-γ)” value (PPAR-γ [1]) was “Antagonist” and the “Literature profile of ligand” value (PPAR-γ [2]) was “Antagonist γ”.

For `COc1cc2c(cc1O)CC[C@@H]1[C@@H]2CC[C@]2(C)[C@@H](O)CC[C@@H]12` [2-methoxy-E2, 2-methoxy-estradiol], the “Change in Tm stabilization from receptor-ligand ΔTm, SRC1” value (ER-β [3]) was 1.0, the “Change in Tm stabilization from receptor-ligand ΔTm, SRC3” value (ER-β [3]; SRC-3 20 μM) was 2.5 and the “Change in Tm stabilization from receptor-ligand ΔTm, SRC2” value (ER-β [3]; co-activator protein SRC-2) was 2.4. The “Observed ΔTm stabilization, Ligand” value (ER-β [3]) was 2.9, the “Change in Tm stabilization from receptor-ligand ΔTm, SRC1” value (ER-α [4]; ER-α 8 μM, ligand 40 μM, SRC-1 20 μM) was 2.1 and the “Observed ΔTm stabilization, Ligand” value (ER-α [4]; ER-α 8 μM, ligand 40 μM, no co-activator) was 3.5. For the same compound, the “Change in Tm stabilization from receptor-ligand ΔTm, NcoR1-NR1” value (ER-α [5]; ER-α 8 μM, ligand 20 μM, co-repressor peptide NCoR-1 100 μM) was −0.7, the “Observed ΔTm stabilization, ligand alone” value (ER-α [5]; ER-α 8 μM, ligand 20 μM, no co-regulator, average of four experiments) was 3.5 and the “Classification as agonist or antagonist for ER-α” value (ER-α [5]; if screened against a panel of co-regulators as in Example 1) was “agonists”. The “Change in Tm stabilization from receptor-ligand ΔTm, SRC1-NR2” value (ER-β [6]; co-activator peptide SRC1-NR2 100 μM) was 4.4, the “Change in Tm stabilization from receptor-ligand ΔTm, SRC3-NR2” value (ER-β [6]; co-activator peptide SRC3-NR2 100 μM) was 4.4 and the “Change in Tm stabilization from receptor-ligand ΔTm, SRC-3” value (ER-β [6]; co-activator protein SRC-3 11 μM) was 2.5. The “Change in Tm stabilization from receptor-ligand ΔTm, NcoR1-NR1” value (ER-β [6]; co-repressor peptide NCoR-1 100 μM) was −0.7 and the “Observed ΔTm stabilization, ligand alone” value (ER-β [6]; no co-regulator, average of four experiments) was 2.9.

For `C[C@]12CC[C@@H]3c4ccc(O)cc4CC[C@H]3[C@@H]1CC[C@@H]2O` [Estradiol], the ΔTm at 20 µM (ER-β [7]; [9]) was 0.5 °C.

With `C[C@]12CCC(=O)C=C1CC[C@@H]1[C@@H]2C(=O)C[C@@]2(C)[C@H]1CC[C@]2(O)C(=O)CO` [cortisone] the ΔTm (ER-α [8]) was 0.01 °C.

For `C[C@]12CC[C@@H]3c4ccc(O)cc4C[C@@H](CCCCCCCCC[S+]([O-])CCCC(F)(F)C(F)(F)F)[C@H]3[C@@H]1CC[C@@H]2O` (stereo partly drawn) [ICI-182780], the “Observed ΔTm stabilization, Ligand” value (ER-β [3]) was 16.7, the “Co-activator recruitment, conclusion in words” value (ER-α [4]; from Table 4 and FIGS. 3 and 4, SRC-1, SRC-2, SRC-3, ER-α (b172 also ER-β)) was “very little ability to recruit co-activator” and the ΔTm at 20 µM (ER-α [4]; [9]) was 0.4 °C. The ΔTm at 20 µM (ER-α [4]; [10]) was 0.5 °C, the “Co-activator recruitment / additional stabilization, conclusion in words” value (ER-α [5]; from Table 1, both receptors ER-α and ER-β) was “no ability to recruit co-activators” and the ΔTm at 11 µM (ER-α [5]; read-out: Change in Tm stabilization from receptor-ligand ΔTm, SRC-3) was 0.5 °C. For the same compound, the ΔTm at 11 µM (ER-β [6]; co-activator protein SRC-3 11 μM, read-out: Change in Tm stabilization from receptor-ligand ΔTm, SRC-3) was 0.9 °C, the ΔTm at 20 µM (ER-β [7]; [9]) was 0.5 °C and the ΔTm at 20 µM (ER-β [7]; [10]) was 0.9 °C.

With “17-α-ethylene-estradiol [17-α-ethylene-E2]” the “Change in Tm stabilization from receptor-ligand ΔTm, SRC1” value (ER-β [3]) was 1.1.

For 4-hydroxytamoxifen [4-OH-tamoxifen], the “Classification as agonist or antagonist for ER-α” value (ER-α [5]) was “antagonist”.
